Results on eight compounds are retold here after ChEMBL document CHEMBL1201862, “PubChem BioAssay data set” (2004).

Test systems include IGROV-1; Malme-3M; MOLT-4; HCT-116; HOP-92; HOP-62; HL-60; SK-OV-3; COLO 205; CAKI-1; OVCAR-5; SW-620; MCF7; SF-295; U-251; UACC-62; OVCAR-4; T47D; OVCAR-8; RXF 393.
Common to all, as to assay: growth of human tumour cells (NCI), 48 h

Molecules are shown by their SMILES.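 All cell lines were grown in 96-well plates and treated with compound for 48 hours. The concentration for 50% growth inhibition is given as GI50.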 Activity calls are given as the source filed them. No stated cut-off is given here; in the data, active = GI50 up to about 1.1 µM and inactive = higher.

As for `C=C1CC(C)(COc2ccc3c(C)cc(=O)oc3c2)OC1=O` (stereo unspecified), the GI50 in the assay with IGROV-1 was 2.47 µM (inactive); with Malme-3M, 1.29 µM (inactive); in the assay on MOLT-4 it was 1.47 µM (inactive); in the assay with HCT-116, 0.778 µM (active); in the assay on HOP-92, 1.09 µM (active); in the assay on HOP-62, 13.8 µM (inactive). Moreover, the GI50 in the assay on HL-60 is 0.232 µM (active); with SK-OV-3, 3.73 µM (inactive); in the assay with COLO 205, 0.951 µM (active); in the assay on CAKI-1 it was 1.3 µM (inactive); in the assay on OVCAR-5 it was 4.22 µM (inactive); in the assay on SW-620 it was 0.431 µM (active). Further, the GI50 with MCF7 was 0.706 µM (active); in the assay with SF-295, 4.34 µM (inactive); in the assay on U-251, 10.9 µM (inactive); with UACC-62, 1.69 µM (inactive); in the assay on OVCAR-4 it was 2.62 µM (inactive); in the assay with T47D, 1.74 µM (inactive). Besides, in the assay with OVCAR-8, the GI50 is 3.17 µM (inactive).

Regarding `CN1C(=O)CN=C(c2ccccc2F)c2cc(N=C=S)ccc21`, the GI50 in the assay on IGROV-1 is 38.7 µM (inactive); in the assay with Malme-3M, > 100 µM (inactive); with HCT-116, 44.3 µM (inactive); in the assay with HOP-92, 23.7 µM (inactive); in the assay with HOP-62, > 100 µM (inactive); with HL-60, 34.2 µM (inactive). In addition, the GI50 in the assay on SK-OV-3 was > 100 µM (inactive); with CAKI-1 it was 11.3 µM (inactive); in the assay with OVCAR-5, > 100 µM (inactive); with SW-620 it was 53.5 µM (inactive); in the assay on MCF7 it was 29.5 µM (inactive); in the assay on SF-295, 52.8 µM (inactive). In addition, the GI50 was 48.4 µM (inactive) in the assay with U-251; 25.1 µM (inactive) with UACC-62; 35.4 µM (inactive) in the assay with OVCAR-4; 36.6 µM (inactive) in the assay on RXF 393; 56.8 µM (inactive) in the assay with T47D; 47.5 µM (inactive) in the assay with OVCAR-8.

As to `C=CCNC(=S)N/N=C1\C(=O)Nc2ccc([N+](=O)[O-])cc21`, the GI50 in the assay with IGROV-1 was 23.3 µM (inactive); in the assay on Malme-3M, > 100 µM (inactive); in the assay with MOLT-4, 16.7 µM (inactive); with HCT-116, 24.8 µM (inactive); with HOP-92, 44.2 µM (inactive); in the assay with HOP-62, > 100 µM (inactive). Besides, the GI50 in the assay with HL-60 is 54.7 µM (inactive); in the assay on SK-OV-3, 34 µM (inactive); with COLO 205, 92 µM (inactive); in the assay on CAKI-1, 14.2 µM (inactive); in the assay on OVCAR-5, > 100 µM (inactive); with SW-620 it was 82 µM (inactive). Further, the GI50 in the assay on MCF7 is 36.1 µM (inactive); in the assay with SF-295 it was 29 µM (inactive); in the assay with U-251 it was 64.3 µM (inactive); in the assay on UACC-62, > 100 µM (inactive); in the assay on OVCAR-4, 41.4 µM (inactive); with RXF 393, 16.8 µM (inactive). In addition, the GI50 is 25.5 µM (inactive) in the assay on T47D and 50.5 µM (inactive) in the assay on OVCAR-8.

On to `CCOc1cc(/C=N\O)cc(/C=N/O)c1O`, for which the GI50 with Malme-3M was 37.2 µM (inactive); with MOLT-4, 29.1 µM (inactive); with HCT-116 it was 38.5 µM (inactive); with HOP-92 it was 23.8 µM (inactive); with HOP-62, 37.1 µM (inactive); with HL-60, 18.1 µM (inactive). The GI50 in the assay with SK-OV-3 is 59.4 µM (inactive); in the assay on COLO 205, 22.8 µM (inactive); in the assay on CAKI-1, 21.9 µM (inactive); in the assay with OVCAR-5 it was 50.6 µM (inactive); with SW-620, 34.6 µM (inactive); in the assay with MCF7, 9.68 µM (inactive). For the same compound, the GI50 with SF-295 is 38.3 µM (inactive); with U-251, 25.6 µM (inactive); in the assay with UACC-62, 50.7 µM (inactive); with OVCAR-4 it was 42.6 µM (inactive); in the assay on RXF 393 it was 14.5 µM (inactive); in the assay on T47D, 21.9 µM (inactive). Further, in the assay on OVCAR-8, the GI50 is 25.2 µM (inactive).

On to `CN(C)c1ccc(C2SCC(=O)N2NS(=O)(=O)c2cccc(C(=O)O)c2)cc1` (stereo unspecified), for which the GI50 in the assay with IGROV-1 was > 100 µM (inactive); in the assay with Malme-3M, 99.8 µM (inactive); with MOLT-4, 42.8 µM (inactive); in the assay with HCT-116, > 100 µM (inactive); with HOP-92, > 100 µM (inactive); in the assay on HOP-62 it was > 100 µM (inactive). In addition, the GI50 in the assay on HL-60 was 16.3 µM (inactive); in the assay with SK-OV-3, > 100 µM (inactive); in the assay on COLO 205, > 100 µM (inactive); with CAKI-1 it was > 100 µM (inactive); with OVCAR-5, > 100 µM (inactive); in the assay with SW-620 it was > 100 µM (inactive). Further, the GI50 is 64.9 µM (inactive) in the assay on MCF7; 94 µM (inactive) in the assay on SF-295; > 100 µM (inactive) with U-251; > 100 µM (inactive) in the assay on UACC-62; > 100 µM (inactive) with RXF 393; > 100 µM (inactive) in the assay with T47D. For the same compound, the GI50 in the assay on OVCAR-8 is 17.7 µM (inactive).

Take `CCOC(=O)CSc1c(C(=O)OCC)c(=O)n(-c2ccccc2)c(=S)n1-c1ccccc1`: the GI50 in the assay with IGROV-1 is 20.5 µM (inactive); in the assay with Malme-3M, > 100 µM (inactive); in the assay on MOLT-4, 5.61 µM (inactive); in the assay with HCT-116, 45.7 µM (inactive); with HOP-92, 0.0371 µM (active); in the assay on HOP-62, > 100 µM (inactive). Moreover, the GI50 in the assay on HL-60 is 17.1 µM (inactive); in the assay on SK-OV-3, 89.5 µM (inactive); in the assay with COLO 205, 65.8 µM (inactive); with CAKI-1, > 100 µM (inactive); in the assay on OVCAR-5, > 100 µM (inactive); in the assay on SW-620, 9.42 µM (inactive). Also, the GI50 was 15.2 µM (inactive) with MCF7; 36.7 µM (inactive) in the assay on SF-295; 13.3 µM (inactive) in the assay with U-251; 36.3 µM (inactive) in the assay on UACC-62; 53.5 µM (inactive) in the assay with OVCAR-4; > 100 µM (inactive) in the assay on T47D. Moreover, the GI50 in the assay on OVCAR-8 was 41 µM (inactive).

`FC(F)(F)C(C1=NC(C(F)(F)F)(C(F)(F)F)N=C(N2CCOCC2)O1)C(F)(F)F`: the GI50 with IGROV-1 is 19.6 µM (inactive); in the assay on MOLT-4 it was 28.9 µM (inactive); in the assay on HCT-116, 27.7 µM (inactive); in the assay on HOP-92, 25.8 µM (inactive); with HL-60 it was 5.57 µM (inactive); with SK-OV-3, 31.3 µM (inactive). The GI50 is 14.3 µM (inactive) in the assay on COLO 205; 23.2 µM (inactive) in the assay with CAKI-1; 18.1 µM (inactive) in the assay with OVCAR-5; 14.2 µM (inactive) in the assay with SW-620; > 10 µM (inactive) in the assay with MCF7; 16 µM (inactive) with SF-295. Further, the GI50 in the assay with U-251 is 19.9 µM (inactive); in the assay on UACC-62 it was 13.5 µM (inactive); with OVCAR-4 it was 22.9 µM (inactive); in the assay on RXF 393, 15.7 µM (inactive); in the assay on T47D, 23.4 µM (inactive); with OVCAR-8 it was 15.3 µM (inactive).

As for `COc1ccc(NCC(=O)Nn2c(-c3ccccc3)nc3ccccc3c2=O)cc1`, the GI50 in the assay on IGROV-1 is 27 µM (inactive); in the assay on Malme-3M, 30 µM (inactive); in the assay on MOLT-4, 18.4 µM (inactive); in the assay with HCT-116 it was > 10 µM (inactive); in the assay on HOP-92, 25.4 µM (inactive); with HOP-62, 86.1 µM (inactive). Besides, the GI50 in the assay with HL-60 was 42.3 µM (inactive); with SK-OV-3 it was > 100 µM (inactive); in the assay with COLO 205 it was 37.2 µM (inactive); in the assay with OVCAR-5 it was > 100 µM (inactive); in the assay on SW-620, 28.2 µM (inactive); with MCF7 it was 18.2 µM (inactive). Also, the GI50 with SF-295 was > 100 µM (inactive); in the assay with U-251 it was 28.7 µM (inactive); in the assay on UACC-62, 14.1 µM (inactive); in the assay with OVCAR-4, 33.7 µM (inactive); in the assay with RXF 393 it was > 10 µM (inactive); with T47D, 29.9 µM (inactive). Also, in the assay with OVCAR-8, the GI50 is 31.9 µM (inactive).
